Entries after “also recorded” stand apart in the source; their conditions may differ.
Experiments:
[1] = system: blood cells; CFTR dependent ion channels (SDAC); assay: Hemolysis test of blood cells in 155 mM KCl medium with sDIDS activation of CFTR dependent ion channels; type: cell-based, human
Source text: This embodiment of the invention is based on the idea of evoking a lysis of the non-defective blood cells through activation of certain ion channels of the non-defective blood cells, where through anions flow into the non defective cell, for example: Iodide (I—), bromide (Br—), chloride (Cl—), fluoride (F—), gluconate (dextronic acid-anion), rhodanate (SCN—), and taurine. In defective blood cells these CFTR dependent ion channels don't exist or are not activatable. […] Then no positive pressure can build up in the cell; the blood cells with defective CFTR, especially the blood cells of CF Patients are not subject to lysis.
Since this CFTR dependent ion channel in non-defective blood cells allows the passage of anions such as for example: iodide, bromide, chloride, fluoride, gluconate and rhodanate as well as taurine, the differentiation between defective and non-defective blood cells can also take place in 155 mm solutions that contain iodide, bromide, fluoride, gluconate, rhodanate or taurine.
This embodiment is carried out analogously to the example mentioned above, only the blood cells are resuspended in a solution consisting of 155 mM KCl, 10 mM HEPES-Puffer (pH 7.4) and 100 μM sDIDS. This solution is incubated for 60 min under agitation at 37° C. and afterwards the released hemoglobin in the solution is determined.
Through the selected conditions of the preferred embodiment of the method according to the invention, chloride ions flow into non-defective blood cells via the anion channel activated by sDIDS into the blood cell. That leads to the accumulation of chloride ions in the blood cell and the water influx associated ion influx leads the good blood cell to burst. The hemolysis can be detected photometrically. This procedure may also be carried out with 10 mM HEPES-buffered solution (pH 7,4), that contains 155 mM iodide, bromide, fluoride, gluconate, or rhodanate as anions.

[2] = aqueous solution, room temperature; cited from earlier work
[3] = system: blood cells (reticulocytes and young erythrocytes); CFTR dependent ATP release; assay: Hemolysis test of blood cells in 155 mM KCl medium with Gd3+ blockade of CFTR dependent volume regulation; type: cell-based, human
Source text: A non-defective cell is able to control and regulate its cell volume by interlinking mechanisms during the influx and the efflux of ions and water under physiological conditions. In non-defective blood cells, after application of a 155 mm potassium chloride medium chloride flows into the cell, inter alia through the CFTR. In one embodiment, the invention is based on the idea to inhibit the regulatory volume decrease (RVD) by influencing—for example by blockade—the CFTR-dependent ATP-transporting channels expressed in the cytomembrane. […] This is especially the case with CF blood cells, which due to the CFTR defect have no influx of chloride ions and whose RVD is independent of CFTR. Therefore, no positive pressure can build up in the cell; the blood cells with defective ion channels, especially the blood cells of CF patients undergo no lysis.
In patients suffering from mucoviscidosis with a homozygous ΔF508 mutation, the CFTR is not in the cytomembrane. With heterozygous mutations and other mutations than ΔF508, small quantities of functional CFTR can be in the membrane that transport chloride and are involved in volume regulation. The quantity of the functional CFTR molecules in the cytomembrane is inversely proportional to the severity of the illness. […] The contribution of the CFTR dependent RVD to the entire RVD is proportional to the quantity of the functional CFTR molecules within the membrane. […] Because the quantity of the functional CFTR molecules in the cytomembrane is inversely proportional to the severity of the illness in mucoviscodosis patients, the degree of the hemolysis after blockade of the CFTR dependent RVD is a measurement for the severity of the illness.
In accordance with the invention, first blood cells are extracted from whole blood by centrifugation. […] This solution is incubated for 60 min under agitation at 37° C. and afterwards the released hemoglobin in the solution is determined. […] The hemolysis is determined by visual examination and is quantified by absorption measurement with a wave length of 546 nm. […]

[4] = system: Calu-3 cells (human respiratory tract epithelium cell line); assay: Patch-clamp, whole-cell configuration; type: cell-based; conditions: Calu-3, whole-cell, -90 to +10 mV
Protocol: During the experimental development of the test, it is shown that the observed reaction of the red blood cells can not be explained by the mechanisms known in the literature. The blood cell reactions are only explainable by the existence of a channel proteins, which is not yet known in literature.
In the whole-cell-configuration of the patch-clamp technology, the transmembrane current of a cell is measured with a pre-determined potential. The endocellular potential was maintained for 0.5 seconds in each case at values between −90 to +10 mV and increased in 10 mV intervals (8.d). The currents arising in a cell with this voltage range are presented in 8a–8c. In 8a, the base current of an untreated cell is shown (control). Through treatment with sDIDS, the conductivity of the cytomembrane of this cell increases together with the current (8b). After sDIDS was removed from the experiment (post control), the conductivity of the cytomembrane of this cell decreases, together with the current (8c). In 8e, the current is plotted against the applied potential, so that the slope of the curve is a measurement of the conductivity.

Nc1ccc(CCc2ccc(N=C=S)cc2S(=O)(=O)O)c(S(=O)(=O)[O-])c1.[Na+] [4-amino-4′isothiocyanato-dihydrostilbene-2,2′-disulfonic acid, Na^+-salt]
behaviour compared with sDIDS [1]: behaves like sDIDS

O=S(=O)([O-])c1cc(N=C=S)ccc1C=Cc1ccc(N=C=S)cc1S(=O)(=O)[O-].[Na+].[Na+] [DIDS, 4,4′-diisothiocyanato-stilbene-2,2′-disulfonic acid, sodium salt]
time of hydrolysis to 4-amino-4′-isothiocyanatostilbene-2,2′-disulfonic acid [2]: within a week

[Cl][Gd]([Cl])[Cl] [Gd^3+, gadolinium chloride]
degree of hemolysis after Gd^3+ application ([3]; blood of 22 CF patients): only a slight increase
degree of hemolysis after addition of Gd^3+ ([3]; blood of 87 healthy volunteers): unambiguous increase
degree of hemolysis after addition of Gd^3+ ([3]; umbilical cord blood of 59 newborns): unambiguous increase

CC(=O)Nc1ccc(C=Cc2ccc(N=C=S)cc2S(=O)(=O)O)c(S(=O)(=O)O)c1 [SITS, 4-acetamido-4′-isothiocyanato-stilbene-2,2′-disulfonic acid]
time of hydrolysis to 4-amino-4′-isothiocyanatostilbene-2,2′-disulfonic acid [2]: within a week

Nc1ccc(C=Cc2ccc(N=C=S)cc2S(=O)(=O)O)c(S(=O)(=O)O)c1 [sDIDS, 4-amino-4′-isothiocyanato-stilbene-2,2′-disulfonic acid]
activation of anion conductivity (iodide, bromide, chloride, fluoride, gluconate, rhodanate, taurine) ([1]; blood cells of CF patients): no conductivity
degree of hemolysis after sDIDS application ([1]; blood of 48 CF patients): only a slight increase
degree of hemolysis after addition of sDIDS ([1]; blood of 148 healthy volunteers): unambiguous increase
degree of hemolysis after addition of sDIDS ([1]; umbilical cord blood of 82 newborns): unambiguous increase
conductivity of the cytomembrane / current after removal (post control) [4]: decreases
conductivity of the cytomembrane / current during treatment [4]: reversible activatibility of a conductivity; also recorded: increases

From patent publication US7160729B2, “Method for detecting diseases that are associated with defects of cystic fibrosis transmembrane conductance regulator (CFTR) protein” (priority 2002, dated 2007)
